Results: patent publication US10407467B2, “Polymyxin derivatives and their use in combination therapy together with different antibiotics” (priority 2013, dated 2019)
Read-outs that look alike come from different tables or passages of the source.

How the values were obtained:
Experiment in all cases: MIC, sole activity (no second agent)
Format in all cases: cell-based
Klebsiella pneumoniae = conditions: for MIC: Klebsiella pneumoniae; for MIC K. pneumoniae ATCC 4352 / MIC K. pneumoniae ATCC BAA-2146: Table 6A, no second agent, different supplier of Cation-adjusted MHB
Method: (§1) To evaluate the potency and spectrum of the compounds both alone and in combination with another agent, susceptibility testing was performed against up to four strains of each of the four Gram negative pathogens, Escherichia coli, Pseudomonas aeruginosa, Klebsiella pneumoniae and Acinetobacter baumannii.
(§2) The inoculum was prepared by making a direct suspension of isolated colonies (selected from an 18-24 hour Mueller-Hinton agar plate) adjusted to the 0.5 McFarland standard.
(§3) The assays were performed in duplicate.
(§4) In cases where the duplicate values varied by less than 2-fold, the lower of the two values is reported. If a variation of greater than 2-fold was observed, the assay was considered non-valid. Several of the compounds were subjected to multiple tests, and where this is the case, the MIC reflects the modal value obtained.
(§5) MICs were determined as described herein, except that a different supplier of Cation-adjusted MHB was used. […] Values are reported relative to Polymyxin B.

Escherichia coli = conditions: for MIC: Escherichia coli; for MIC E. coli ATCC25922 / MIC E. coli NCTC 13441: Table 6A, no second agent, different supplier of Cation-adjusted MHB
Method: as §1, §2, §3, §4, §5

Pseudomonas aeruginosa = conditions: for MIC: Pseudomonas aeruginosa; for MIC P. aeruginosa ATCC 27853 / MIC P. aeruginosa CCUG 59347: Table 6A, no second agent, different supplier of Cation-adjusted MHB
Method: as §1, §2, §3, §4, §5

Acinetobacter baumannii = conditions: for MIC: Acinetobacter baumannii, NCTC13424; for MIC A. baumannii ATCC BAA-747 / MIC A. baumannii NCTC 13424: Table 6A, no second agent, different supplier of Cation-adjusted MHB
Method: as §1, §2, §3, §4, §5

Compound | MIC K. pneumoniae ATCC 4352 (Klebsiella pneumoniae) | MIC K. pneumoniae ATCC BAA-2146 (Klebsiella pneumoniae) | MIC E. coli ATCC25922 (Escherichia coli) | MIC E. coli NCTC 13441 (Escherichia coli) | MIC P. aeruginosa ATCC 27853 (Pseudomonas aeruginosa) | MIC P. aeruginosa CCUG 59347 (Pseudomonas aeruginosa) | MIC A. baumannii ATCC BAA-747 (Acinetobacter baumannii) | MIC A. baumannii NCTC 13424 (Acinetobacter baumannii) | other results
C[C@H]1[C@H](NC(=O)/C(=N\OC(C)(C)C(=O)O)c2csc(N)n2)C(=O)N1S(=O)(=O)O [Aztreonam, reference compound] |  |  |  |  |  |  |  |  | MIC (Klebsiella pneumoniae; ATCC4352, Second Agent none (Table 7E), read-out: MIC K. pneumoniae ATCC4352): ≤ 0.06 µg/mL; MIC (Klebsiella pneumoniae; CCUG59349, Second Agent none (Table 7E), read-out: MIC K. pneumoniae CCUG 59349): > 32 µg/mL; MIC (Escherichia coli; ATCC25922, Second Agent none (Table 7E), read-out: MIC E. coli ATCC25922): ≤ 0.06 µg/mL; MIC (Escherichia coli; NCTC13441, Second Agent none (Table 7E), read-out: MIC E. coli NCTC 13441): > 32 µg/mL; MIC (Pseudomonas aeruginosa; ATCC10145, Second Agent none (Table 7E), read-out: MIC P. aeruginosa ATCC 10145): 4 µg/mL; MIC (Acinetobacter baumannii; Second Agent none (Table 7E), read-out: MIC A. baumannii NCTC 13424): 8 µg/mL
O=C(O)c1cn(C2CC2)c2cc(N3CCNCC3)c(F)cc2c1=O [Ciprofloxacin, reference compound] |  |  |  |  |  |  |  |  | MIC (Klebsiella pneumoniae; ATCC4352, Second Agent none (Table 7B, by row order), read-out: MIC K. pneumoniae (ATCC4352)): ≤ 0.06 µg/mL; MIC (Klebsiella pneumoniae; ATCCBAA1706, Second Agent none (Table 7B, by row order), read-out: MIC K. pneumoniae ATCC BAA-1706): 4 µg/mL; MIC (Klebsiella pneumoniae; CCUG59348, Second Agent none (Table 7B), read-out: MIC K. pneumoniae CCUG 59348): > 32 µg/mL; MIC (Klebsiella pneumoniae; NCTC13442, Second Agent none (Table 7B), read-out: MIC K. pneumoniae NCTC 13442): 2 µg/mL; MIC (Escherichia coli; ATCC25922, Second Agent none (Table 7B), read-out: MIC E. coli ATCC25922): ≤ 0.06 µg/mL; MIC (Escherichia coli; CCUG59342, Second Agent none (Table 7B), read-out: MIC E. coli CCUG 59342): 16 µg/mL; MIC (Escherichia coli; NCTC9001, Second Agent none (Table 7B), read-out: MIC E. coli (NCTC9001)): ≤ 0.06 µg/mL; MIC (Pseudomonas aeruginosa; ATCC27853, Second Agent none (Table 7B, by row order), read-out: MIC P. aeruginosa ATCC 27853): 0.125 µg/mL; MIC (Pseudomonas aeruginosa; CCUG59626, Second Agent none (Table 7B, by row order), read-out: MIC P. aeruginosa CCUG 59626): 0.5 µg/mL; MIC (Acinetobacter baumannii; Second Agent none (Table 7B, by row order), read-out: MIC A. baumannii (NCTC 13424)): 1 µg/mL
CO[C@@H]1[C@@H](OC(N)=O)[C@@H](O)[C@H](Oc2ccc3c(O)c(NC(=O)c4ccc(O)c(CC=C(C)C)c4)c(=O)oc3c2C)OC1(C)C [Novobiocin, reference compound] |  |  |  |  |  |  |  |  | MIC (Klebsiella pneumoniae; CCUG59349, Table 7H, K. pneumoniae CCUG 59349, second agent none, read-out: MIC K. pneumoniae CCUG 59349): > 32 µg/mL; MIC (Klebsiella pneumoniae; Table 7H, K. pneumoniae ATCC4352, second agent none, read-out: MIC K. pneumoniae ATCC4352): 0.25 µg/mL; MIC (Escherichia coli; NCTC13441, Table 7H, E. coli NCTC 13441, second agent none, read-out: MIC E. coli NCTC 13441): > 32 µg/mL; MIC (Escherichia coli; Table 7H, E. coli ATCC25922, second agent none, read-out: MIC E. coli ATCC25922): 16 µg/mL; MIC (Pseudomonas aeruginosa; ATCC10145, Table 7H, P. aeruginosa ATCC 10145, second agent none, read-out: MIC P. aeruginosa ATCC 10145): > 32 µg/mL; MIC (Acinetobacter baumannii; Table 7H, A. baumannii NCTC 13424, second agent none): 4 µg/mL
(1- aminomethylcyclohexane) carbonyl polymyxin B nonapeptide [Example A34] | 8 micrograms/mL | >8 micrograms/mL | 8 micrograms/mL | >8 micrograms/mL | 0.5 micrograms/mL | 2 micrograms/mL | >8 micrograms/mL | >8 micrograms/mL | 
(2S)-2-Amino-3- cyclohexanepropanoyl polymyxin B nonapeptide [Example A16] | >8 micrograms/mL | >8 micrograms/mL | >8 micrograms/mL | >8 micrograms/mL | 1 micrograms/mL | >8 micrograms/mL | >8 micrograms/mL | >8 micrograms/mL | 
(2S)-Morpholine-2-carbonyl polymyxin B nonapeptide [Example A40] | 4 micrograms/mL | 8 micrograms/mL | 8 micrograms/mL | 4 micrograms/mL | 2 micrograms/mL | 4 micrograms/mL | >8 micrograms/mL | >8 micrograms/mL | 
(2S)-piperazine-2-carbonyl polymyxin B nonapeptide [Example A49] | 2 micrograms/mL | >8 micrograms/mL | 4 micrograms/mL | 4 micrograms/mL | 2 micrograms/mL | 4 micrograms/mL | >8 micrograms/mL | >8 micrograms/mL | 
(2S,3S)-3-Amino-2-hydroxy- 5-methylhexanoyl polymyxin B decapeptide [Example A18] | 4 micrograms/mL | 4 micrograms/mL | 8 micrograms/mL | 4 micrograms/mL | 0.5 micrograms/mL | 1 micrograms/mL | 4 micrograms/mL | 8 micrograms/mL | 
(2S,4R)-4-amino-1-(3-amino- 3-cyclohexylpropanoyl)pyrrolidine- 2-carbonyl polymyxin B nonapeptide [Example A29] | >8 micrograms/mL | >8 micrograms/mL | >8 micrograms/mL | >8 micrograms/mL | 0.25 micrograms/mL | >8 micrograms/mL | 2 micrograms/mL | 4 micrograms/mL | 
(R)-4-isobutylpiperazine-2- carbonyl polymyxin B nonapeptide [Example A46] | 2 micrograms/mL | 2 micrograms/mL | 2 micrograms/mL | 2 micrograms/mL | 1 micrograms/mL | 2 micrograms/mL | 8 micrograms/mL | 2 micrograms/mL | 
(R)-Piperidine-3-carbonyl polymyxin B nonapeptide [Example A24] | 8 micrograms/mL | >8 micrograms/mL | >8 micrograms/mL | >8 micrograms/mL | 1 micrograms/mL | 2 micrograms/mL | >8 micrograms/mL | >8 micrograms/mL | 
(S)-1-(2-methylpropyl)- piperidine-3-carbonyl polymyxin B nonapeptide [Example A48] | 0.5 micrograms/mL | 2 micrograms/mL | 1 micrograms/mL | 1 micrograms/mL | 1 micrograms/mL | 4 micrograms/mL | 4 micrograms/mL | 2 micrograms/mL | 
(S)-1-(3-methylbutanoyl) piperazine-2-carbonyl polymyxin B nonapeptide [Example A47] | >8 micrograms/mL | 8 micrograms/mL | >8 micrograms/mL | 8 micrograms/mL | 2 micrograms/mL | 8 micrograms/mL | 8 micrograms/mL | 4 micrograms/mL | 
Cis-4-Octyl piperidine-2- carbonyl polymyxin B nonapeptide. Isomer 1 [Example A43] | >8 micrograms/mL |  | 8 micrograms/mL | >8 micrograms/mL | 4 micrograms/mL | 8 micrograms/mL | >8 micrograms/mL | >8 micrograms/mL | 
Cis-4-Octyl piperidine-2- carbonyl polymyxin B nonapeptide. Isomer 2 [Example A44] | 2 micrograms/mL |  | 2 micrograms/mL | 2 micrograms/mL | 1 micrograms/mL | 2 micrograms/mL | 2 micrograms/mL | 4 micrograms/mL | 
D-Leu-polymyxin B nonapeptide [Example A42] | 2 micrograms/mL | 1 micrograms/mL | 2 micrograms/mL | 1 micrograms/mL | 0.5 micrograms/mL | 2 micrograms/mL | 4 micrograms/mL | 4 micrograms/mL | 
